Columns and labels:
[1] = Tumor pharmacokinetic study; conditions: 30 mg/kg IV QDx6
Excerpt: Plasma, blood and tumor samples were taken on day 1,4 and 6 and three animals sacrificed for each time point.

[2] = Body weight of tumor-bearing xenograft mice; type: in vivo, NCr nu/nu mice; conditions: BC-PC3 xenograft mice; Figure 4B
[3] = tested on: MDA-MB-231 xenografts; assay: Tumor suppression in xenograft mice; conditions: IV at 30 and 60 mg/kg and oral at 200 mg/kg
[4] = tested on: BC-PC3 cells; assay: Tumor suppression in xenograft mice; conditions: 60mg/kg QD IV, 100mg/kg BID IP, 50mg/kg BID IV, Figure 4A
[5] = tested on: MiaPaca xenografts; assay: Tumor suppression in xenograft mice; type: in vivo, NCr nu/nu mice
Experimental: (§1) Animals were handled under laminar-flow hoods.
(§2) Gemzar™ administered at a dose of 80 mg/kg IP Q3D was used as a positive control.

[6] = tested on: H460; assay: Cell proliferation assay (Alamar Blue); type: cell-based; conditions: Homo sapiens, NCI-H460, 96 h, H460 cells, four days
Method in brief: (§3)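 Plate 4,000-5,000 cells per well, add 2X compound dilutions, and incubate four days at 37°C, 5% CO2. Add Alamar Blue, incubate four hours, then record fluorescence (544/590 nm).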

[7] = tested on: HT29; assay: Cell proliferation assay (Alamar Blue); type: cell-based; conditions: Homo sapiens, HT-29, 96 h, HT29 cells, four days
Method in brief: as §3

[8] = tested on: PanC1; assay: Cell proliferation assay (Alamar Blue); type: cell-based; conditions: Homo sapiens, PANC-1, 96 h, PanC1 cells, four days
Method in brief: as §3

[9] = tested on: HL-60/MX2; assay: Cell proliferation assay (Alamar Blue); type: cell-based; conditions: Homo sapiens, HL60/MX2, 96 h, HL-60/MX2 cells, four days
Method in brief: as §3

[10] = tested on: COLO205; assay: Cell proliferation assay (Alamar Blue); type: cell-based; conditions: Homo sapiens, COLO 205, 96 h, COLO205 cells, four days
Method in brief: as §3

[11] = tested on: BxPC3; assay: Cell proliferation assay (Alamar Blue); type: cell-based; conditions: Homo sapiens, BXPC-3, 96 h, BxPC3 cells, four days
Method in brief: as §3

[12] = tested on: SK-OV-3; assay: Cell proliferation assay (Alamar Blue); type: cell-based; conditions: Homo sapiens, 96 h, SK-OV-3 cells, four days
Method in brief: as §3

[13] = tested on: MCF-10A; assay: Cell proliferation assay (Alamar Blue); type: cell-based; conditions: Homo sapiens, 96 h, MCF-10A cells, four days
Method in brief: as §3

[14] = tested on: K-562; assay: Cell proliferation assay (Alamar Blue); type: cell-based; conditions: Homo sapiens, K562, 96 h, K-562 cells, four days
[15] = tested on: Raji; assay: Cell proliferation assay (Alamar Blue); type: cell-based; conditions: Homo sapiens, 96 h, Raji cells, four days
Method in brief: as §3

[16] = tested on: A549; assay: Cell proliferation assay (Alamar Blue); type: cell-based; conditions: Homo sapiens, 96 h, A549 cells, four days
Method in brief: as §3

[17] = tested on: MDAMB231; assay: Cell proliferation assay (Alamar Blue); type: cell-based; conditions: Homo sapiens, MDA-MB-231, 96 h, MDAMB231 cells, four days
Method in brief: as §3

[18] = tested on: HL-60; assay: Cell proliferation assay (Alamar Blue); type: cell-based; conditions: Homo sapiens, 96 h, HL-60 cells, four days
Method in brief: as §3

[19] = tested on: MCF-7; assay: Cell proliferation assay (Alamar Blue); type: cell-based; conditions: Homo sapiens, MCF7, 96 h, MCF-7 cells, four days
Method in brief: as §3

[20] = tested on: LNCaP; assay: Cell proliferation assay (Alamar Blue); type: cell-based; conditions: Homo sapiens, 96 h, LNCaP cells, four days
Method in brief: as §3

[21] = Pharmacokinetics after IV and PO dosing; conditions: for AUC(0-t) at 8 h: mouse
Experimental: The pharmacokinetics properties of drugs were investigated in ICR mice following an intravenous (IV) bolus and oral (PO) doses of drug at 5 mg/kg and 25 mg/kg respectively. Blood samples were collected at predetermined times and the plasma separated. Plasma was separated from the blood samples collected at 5,15 and 30 minutes and 1, 2, 4, 8 and 24 hours post-dose.
Drug levels were quantified by the LC/MS/MS method described below. Noncompartmental pharmacokinetic analysis was applied for intravenous administration. […] The terminal t1/2 and Co were calculated using the last three and the first three data points, respectively
Bioanalysis was performed using a Quattro Micro LC/MS/MS instrument in the MRM detection mode, with an internal standard (IS). Briefly, 15 µL plasma samples were prepared for analysis using protein precipitation with 120 µL of acetonitrile. The supernatants were transferred into a 96 well plate and subjected to LC-MS/MS analysis using a Phenomenex Polar-RP HPLC column. The mobile phases were 10 mM NH4HCO3 in water (Solution-A) and 10 mM NH4HCO3 in methanol (Solution-B). […] Quantitation of the analytes was performed in the batch mode with two bracketing calibration curves according to the bioanalytical sample list

[22] = Distribution in plasma and tumors of animals; type: in vivo
Experimental: The distribution of compound A1 in the plasma and tumors of animals was assessed.

[23] = tested on: caspase-3; assay: Caspase staining as biomarker in tumors; type: in vivo; conditions: 60 mg/kg by IV administration
Experimental: Caspase staining also was assessed as a biomarker for compound A1 treatment of tumors.

[24] = tested on: MCF-7 xenografts; assay: Tumor suppression in xenograft mice; type: in vivo, NCr nu/nu mice; conditions: oral administration at 100 mg/kg
Experimental: as §1, §2

[25] = tested on: PC-3 xenografts; assay: Tumor suppression in xenograft mice; type: in vivo, NCr nu/nu mice; conditions: oral administration at 150 mg/kg
Experimental: as §1, §2

[26] = biological target: endogenous CK2 (Homo sapiens, UniProt P68400); assay: Modulation of endogenous CK2 activity in Jurkat cells; type: cell-based; conditions: drug for two hours
Sequence of endogenous CK2 (P68400 whole entry): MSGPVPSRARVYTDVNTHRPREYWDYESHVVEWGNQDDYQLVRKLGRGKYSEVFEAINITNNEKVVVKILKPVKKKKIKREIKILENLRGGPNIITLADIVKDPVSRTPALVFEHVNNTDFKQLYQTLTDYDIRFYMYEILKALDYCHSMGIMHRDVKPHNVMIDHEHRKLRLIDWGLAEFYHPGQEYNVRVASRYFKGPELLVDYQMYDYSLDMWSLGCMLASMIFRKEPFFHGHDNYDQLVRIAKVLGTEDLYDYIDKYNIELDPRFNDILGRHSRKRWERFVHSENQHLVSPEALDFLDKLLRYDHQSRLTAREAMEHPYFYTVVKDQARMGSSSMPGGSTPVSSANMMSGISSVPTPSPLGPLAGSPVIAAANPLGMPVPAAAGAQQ
Sequence of endogenous CK2 (P67870 2-215, further chain): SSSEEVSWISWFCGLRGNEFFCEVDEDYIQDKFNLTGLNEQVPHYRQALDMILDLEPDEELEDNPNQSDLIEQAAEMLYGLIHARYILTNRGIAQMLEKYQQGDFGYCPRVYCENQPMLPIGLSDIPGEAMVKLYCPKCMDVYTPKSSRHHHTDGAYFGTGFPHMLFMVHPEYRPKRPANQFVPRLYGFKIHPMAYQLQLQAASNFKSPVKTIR
Experimental: Before treatment cells were washed, resuspended at a density of about 10^6 cells/milliliter in medium containing 1% fetal calf serum and incubated in the presence of indicated mounts of drug for two hours. […] To 20 microliters of diluted protein was added 10 microliters of substrate peptide ([sequence], dissolved in ADB at a concentration of 1 mM) and 10 microliters of PKA Inhibitor cocktail (Upstate).

Question: With `C#Cc1cccc(Nc2nc3cc(C(=O)O)ccc3c3cncnc23)c1` [A2] as the molecule, how does the “half life on repeated dosing” value [1] read?
Answer: about doubles

Question: And the “minimum concentration after six days” value [1]?
Answer: 4-5 times higher

Question: And the “terminal slope on repeated dosing” value [1]?
Answer: decreases

Question: What about the body weight [2] of the same molecule?
Answer: not significantly altering body weight

Question: And the tumor progression [3]?
Answer: significantly inhibited tumor progression

Question: And the tumor progression [4]?
Answer: significantly inhibited tumor progression

Question: And the tumor progression ([5]; IV at 50 and 60 mg/kg and IP at 100 mg/kg)?
Answer: significantly inhibited tumor progression

Question: What about the tumor progression ([5]; oral 100 mg/kg QDx8 and 200 mg/kg QDx6, meglumine salt) of the same molecule?
Answer: significantly inhibited tumor progression

Question: With `CNc1ncc2c(n1)c(Nc1ccccc1)nc1cc(C(=O)O)ccc12` [drawing 455] as the molecule, how does the IC50 [6] read?
Answer: 4.06 µM

Question: And the IC50 [7]?
Answer: 15.3 µM

Question: What about the IC50 [8] of the same molecule?
Answer: 15.9 µM

Question: And the IC50 [9]?
Answer: 5.68 µM

Question: What about the IC50 [10] of the same molecule?
Answer: 9.56 µM

Question: What about the IC50 [11] of the same molecule?
Answer: 1.83 µM

Question: What about the IC50 [12] of the same molecule?
Answer: 1.06 µM

Question: Which results are given for `O=C(O)c1ccc2c(c1)nc(Nc1cccc(Cl)c1)c1ccncc12` [drawing 448]?
Answer: IC50 [6]: 10.3 µM; IC50 [13]: 0.53 µM; IC50 [7]: 1.56 µM; IC50 [8]: 17.8 µM; IC50 [9]: 10.5 µM; IC50 [10]: 1.96 µM; IC50 [11]: 2.75 µM; IC50 [12]: 9.03 µM

Question: Which IC50 [14] does the source give for `O=C(O)c1ccc2c(c1)nc(Nc1cc(F)cc(F)c1)c1ccncc12` [drawing 387] here?
Answer: 3.26 µM

Question: What about the IC50 [15] of the same molecule?
Answer: 6.35 µM

Question: And the IC50 [16]?
Answer: 27.4 µM

Question: What about the IC50 [17] of the same molecule?
Answer: 11 µM

Question: And the IC50 [18]?
Answer: 4.81 µM

Question: And the IC50 [19]?
Answer: 1.89 µM

Question: What about the IC50 [20] of the same molecule?
Answer: 10.8 µM

Question: What does the source list for `O=C(O)c1ccc2c(c1)nc(Nc1cccc(Cl)c1)c1ccncc12` [A1]?
Answer: CLs ([21]; ICR mice, IV 5 mg/kg): 1.5 L/h/kg; Kel ([21]; ICR mice, IV 5 mg/kg): 0.1586 h⁻¹; Kel ([21]; ICR mice, PO 25 mg/kg): 0.1076 h⁻¹; AUC(0-t) at 8 h ([21]; in vivo, iv, 5 mg/kg): 2.91 µg·h/mL; AUC(0-t) at 8 h ([21]; in vivo, po, 25 mg/kg): 1.58 µg·h/mL; compound identified in tumors ([22]; 30 mg/kg IV): about 42.9 micromolar; compound identified in tumors ([22]; 60 mg/kg IV): ~7.0 µM; compound identified in plasma ([22]; 200 mg/kg orally): ~9.5 µM; compound identified in tumors ([22]; 200 mg/kg orally): ~6.4 µM; caspase-3 cell staining levels versus untreated control cells [23]: four-fold greater; tumor growth [24]: significantly inhibited tumor growth; tumor growth [25]: significantly inhibited tumor growth

Question: Which results are given for `O=C(O)c1ccc2c(c1)nc(Nc1ccccc1)c1ccncc12` [drawing 443]?
Answer: IC50 [6]: 37.5 µM; IC50 [13]: 3.84 µM; IC50 [8]: > 50 µM; IC50 [10]: 8.92 µM; IC50 [11]: 10.8 µM; IC50 [12]: 20.7 µM

Question: For `O=C(O)c1ccc2c(c1)nc(Nc1cc(F)cc(F)c1)c1ncncc12` [drawing 449], which IC50 [6] is on record?
Answer: 4.19 µM

Question: What about the IC50 [13] of the same molecule?
Answer: 1.08 µM

Question: And the IC50 [7]?
Answer: 12.4 µM

Question: And the IC50 [8]?
Answer: 9.34 µM

Question: And the IC50 [10]?
Answer: 5.69 µM

Question: What about the IC50 [11] of the same molecule?
Answer: 3.34 µM

Question: What about the IC50 [12] of the same molecule?
Answer: 6.98 µM

Question: With `C#Cc1cccc(Nc2nc3cc(C(=O)O)ccc3c3cnccc23)c1` [drawing 457] as the molecule, how does the IC50 [6] read?
Answer: 13.8 µM

Question: And the IC50 [13]?
Answer: 0.73 µM

Question: And the IC50 [7]?
Answer: 45.5 µM

Question: And the IC50 [8]?
Answer: 4.07 µM

Question: And the IC50 [10]?
Answer: 4.44 µM

Question: What about the IC50 [11] of the same molecule?
Answer: 3.7 µM

Question: And the IC50 [12]?
Answer: 23.4 µM

Question: What does the source list for `O=C(O)c1ccc2c(c1)nc(Nc1ccc(Cl)cc1)c1ccncc12` [drawing 384]?
Answer: IC50 [14]: 8.65 µM; IC50 [15]: 5.46 µM; IC50 [16]: 9.74 µM; IC50 [17]: 3.79 µM; IC50 [18]: 3.74 µM; IC50 [19]: 0.76 µM; IC50 [20]: 7.39 µM

Question: For `C#Cc1cccc(Nc2nc3cc(C(=O)O)ccc3c3cncnc23)c1` [drawing 452], which IC50 [6] is on record?
Answer: 7.33 µM

Question: And the IC50 [13]?
Answer: 0.64 µM

Question: And the IC50 [7]?
Answer: 12.4 µM

Question: And the IC50 [8]?
Answer: 2.34 µM

Question: What about the IC50 [9] of the same molecule?
Answer: 8.81 µM

Question: And the IC50 [10]?
Answer: 7.04 µM

Question: What about the IC50 [11] of the same molecule?
Answer: 2.58 µM

Question: What about the IC50 [12] of the same molecule?
Answer: 20.2 µM

Question: What does the source list for `O=C(O)c1ccc2c(c1)nc(Nc1cccc(F)c1)c1ncncc12` [drawing 378]?
Answer: IC50 [14]: 1.77 µM; IC50 [15]: 4.51 µM; IC50 [16]: 14.1 µM; IC50 [17]: 0.84 µM; IC50 [18]: 9.68 µM; IC50 [19]: 1.06 µM; IC50 [20]: 1.36 µM

Question: Which IC50 [26] does the source give for `COC(=O)c1ccc2c(c1)nc(Nc1ccc(F)c(Cl)c1)c1ncncc12` [drawing 523] here?
Answer: > 50 µM

Question: Which “F(0-Inf)” value ([21]; ICR mice, PO 24.5 mg/kg) does the source give for `C#Cc1cccc(Nc2nc3cc(C(=O)O)ccc3c3cncnc23)c1` [drawing 547] here?
Answer: 31.1%

Question: What about the “F([…])” value ([21]; ICR mice, PO 24.5 mg/kg) of the same molecule?
Answer: 26.5%

Question: What about the Kel ([21]; ICR mice, PO 24.5 mg/kg) of the same molecule?
Answer: 0.0594 h⁻¹

Question: What about the AUC(0-t) at 8 h ([21]; plasma, po, 24.5 mg/kg) of the same molecule?
Answer: 6 µg·h/mL

Question: With `C#Cc1cccc(Nc2nc3cc(C(=O)O)ccc3c3cncnc23)c1` [drawing 380] as the molecule, how does the IC50 [14] read?
Answer: 1.2 µM

Question: What about the IC50 [15] of the same molecule?
Answer: 3.38 µM

Question: And the IC50 [16]?
Answer: 21.2 µM

Question: What about the IC50 [17] of the same molecule?
Answer: 4.25 µM

Question: And the IC50 [18]?
Answer: 4.49 µM

Question: And the IC50 [19]?
Answer: 1.27 µM

Question: And the IC50 [20]?
Answer: 1.4 µM

From EP2061765B1, “Serine-threonine protein kinase and PARP modulators” (Senhwa Biosciences, Inc., priority 2006, dated 2008)
